Results on eleven molecules are retold here after patent US6858718B1, “Hydrogen production” (Melis Energy, priority 2001, dated 2005).

“Also recorded” adds a separate entry of the source. Like-named read-outs stand apart in the source and are kept apart here.

Data set [1] deals with hydrogenase activity. Nature of the data set: In vivo hydrogenase activity (H2 evolution) of anaerobically adapted cells in the presence of inhibitors of the photosynthetic electron flow. Type of data set: cell-based, Scenedesmus obliquus. The settings on record: for Effect on H2 photoproduction / hydrogenase activity (in words): S. obliquus cells after anaerobic adaptation. As to the method:
(§1) The in vivo activity in the presence of different inhibitors of the photosynthetic electron flow was determined as described by Happe et al., in: European Journal of Biochemistry, 214, 475-481 (1993). After anaerobic adaptation, algal cells were harvested, diluted in fresh Tris acetate phosphate medium, and transferred to sealed tubes. Inhibitors were added 1 hour before H2 evolving activity was measured. Cells were broken by sonification. […] Ferrodoxin of both C. reinhardtii and S. obliquus was isolated according to the method of Schmitter et al. (Eur. J.l of Biochem., 172, pages 405-412 (1988)).
Hydrogenase activity was determined in intact and broken cells after anaerobic adaptation. […] This rate corresponds to 85% of the oxygen evolution measure with intact Scenedesmus cells.
In S. obliquus, the hydrogen evolution is linked to the photosynthetic electron transport chain through PSI. […] With reference to Table II, after anaerobic adaptation, cells were harvested, diluted in fresh, TAP medium, and incubated with inhibitors as described herein. α-PetF-antibody was raised against spinach ferredoxin. In Table II, DCMU=3-(3,4-dichlorophenyl)-1,1-dimethylurea; DBMIB=2,5-dibromo-3-methyl-6 isopropyl-p-benzochinone; Sulfo-DSPD=sulfodisalicylidinepropanediamin; DCPIP=2,6-dichlorophenolindophenol. The electron transport from PSI to ferredoxin was inhibited using the artificial electron acceptor DCPIP. In this reaction, DCPIP is reduced instead of ferredoxin and electron transfer to hydrogenase is interrupted.

For data set [2], the system named is iron hydrogenase from S. obliquus. Nature of the data set: Biochemical data of purified iron hydrogenase, hydrogen evolution assay with reduced methyl viologen. Also noted: species or system Scenedesmus obliquus. As to the method: (§2) The in vitro hydrogenase activity was measured by using a Hewlett Packard (HP 5890, Series II) gas chromatograph, equipped with a thermal conductivity detector and a molecular sieve column. Methyl viologen reduced by sodium dithionite was used as an electron donor. 1 unit is defined as the amount of hydrogenase evolving 1 mmol of molecular hydrogen (H2) per minute at 25° C.
40-liter cultures of Scenedesmus obliquus were grown heterotrophically. After centrifugation (10 min, 5000×g) the pellet we re-suspended in 200 ml TAP medium. The cells were anaerobically adapted by flushing the solution with argon for 1 hour in the dark. All further purification steps were performed in an anaerobic chamber (Coylab, Ann Arbor, Mich., USA). The cells were disrupted in a 50 mM Tris/HCl, buffer pH 8.0, 10 mM sodium dithionite by vortexing 3 min with glass beads. The further purification steps were made as described hereinbelow for the isolation of the Fe-hydrogenase of Chlamydomonas reinhardti. Automated Edman degradation of the N-terminal site of the protein was performed with an Applied Biosystem model 477A sequencer with online analysator model 120 A.
The N-terminal sequence of HydA was determined by Edman degradation.

Data set [3] deals with iron hydrogenase from C. reinhardtii. Described as above. The arrangement: species or system Chlamydomonas reinhardtii. As to the method:
Hydrogenase activity of C. reinhardtii was determined in vitro with reduced methyl viologen using a gas chromatograph (Hewlett Packard 5890 Å Series II, column: molecular Sieve 5 Å, Mesh 60/80). The assay, containing in a final volume of 2 mL Pipes pH 6.8 (20 mM), Na2S2O4 (20 mM), MV (5 mM), was incubated anaerobically at 25° C. for 20 min. One unit is defined as he amount of hydrogenase evolving 1 μmol H2 per minute.
Cells from a 40-L culture of C. reinhardtii were harvested by ultra filtration through an Amicon Ultrafiltration System DC 10 LA, with a hollow-fiber filter. The pellet was resuspended in 200 mL TAP medium. After anaerobic adaptation by flushing the solution with argon for 1 h in the dark, all steps were performed under strictly anaerobic conditions. The isolated Fe-hyrogenase was chemically cleaved by cyanogen brormide (CNBr). After separation of he CNBr fragments on an SDS polyacrylamide gel, four peptides were blotted onto a poly(vinylidene difluoride) membrane and were sequenced. Automated Edman degradation was performed with an Applied Biosystem model 477 A sequencer with online analysator model 120 A.
To verify that the hydA ORF encodes the Fe-hydrogenase of C. reinhardtii, the enzyme was purified according to Happe and Naber (Eur. J. Biochem. 214,475-481 (1993)). The purified protein was able to evolve hydrogen, when incubated with reduced methyl viologen. After proteolytic digestion with cyanogen bromide, four bands of 4, 8, 9 and 11 kDa were detected after SDSIPAGE separation (data not shown). Two fragments (9 and 11 kDa) were sequenced by Edman degradation. […] The two fragment sequences are identical with he deduced amino-acid sequence of hydA (sequences are shadowed in gray in FIG. 6). The fragment corresponding to the cDNA region between 158 and 1636 bp of hydA was NdeI-BamHI cloned into the expression vector pET9a. The heterologous expressed protein was detected using antibodies raised against the Fe-hydrogenase. Both the purified Fe-hydrogenase of C. reinhardtii and the overexpressed enzyme had the same size (47.5 kDa). […] (ibid) who also detected no H2-production of the recombinant expressed Fe-hydrogenase from Desulfovibrio vulgaris in E. coli cells. An explanation might be the inability of E. coli to assemble the unique active site of the Fe-hydrogenases. It is known that E. coli has only three NiFe-hydrogenases with a different maturation system for the catalytic center.

For data set [4], the system named is H2-evolution. The settings on record: C. reinhardtii, stated as known; cited from earlier work.
Data set [5] concerns purified S. obliquus hydrogenase. Kind of data set: Electron transfer properties of electron donors measured in vitro with dithionite as reducing reagent. In kind it is biochemical, Scenedesmus obliquus. The settings on record: for H2-evolving activities: ferredoxin as electron donor, dithionite as reducing reagent. As to the method: as §2, §1
The electron transfer properties of different plant-type ferredoxins were measured in vitro with dithionite as a reducing reagent. […] In this assay, H2-evolving activities of 420, 390 and 350 U/mg protein with S. obliquus, C. reinhardtii and spinach ferredoxin, respectively, were observed. […] In D. desulfuricans, the Fe-hydrogenase has been reported to catalyze both hydrogen production and uptake with low potential multiheme cytochromes such as cytochrome c3.

Data set [6] can be described thus: Hydrogenase activity of lysate of induced E. coli cells expressing S. obliquus hydA. Type of data set: cell-based, Escherichia coli.
The nature of data set [7]: Hydrogenase activity of lysate of induced E. coli cells expressing C. reinhardtii hydA. The settings on record: lysate of the induced E. coli cells. In kind it is cell-based, Escherichia coli. The protocol: The hydA gene, corresponding to amino acids 57-497, was amplified, confirmed by sequences analysis and cloned into corresponding sites of he pET9a expression vector (Promega). The constructed plasmid was then ransformed into E. coli strain BL21(DE3). After induction with 1 mM isopropyl-thio-β-D-galactoside, the cells were resuspended in lysis buffer. Crude extracts from C. reinhardtii were isolated by harvesting cells after indicated anaerobic adaptation times. The pellet was resuspended in solubilization buffer and incubated with vigorous vortexing at RT for 30 min. The protein extracts from C. reinhardtii and E. coli were separated by 12% SDS/PAGE and blotted onto a poly(vinylidenedifluoride) membrane. Affinity-purified antibodies were diluted 1:200 and used for Western blot analyses.
To verify that the hydA ORF encodes the Fe-hydrogenase of C. reinhardtii, the enzyme was purified according to Happe and Naber (Eur. J. Biochem. 214,475-481 (1993)). […] After proteolytic digestion with cyanogen bromide, four bands of 4, 8, 9 and 11 kDa were detected after SDSIPAGE separation (data not shown). […] The heterologous expressed protein was detected using antibodies raised against the Fe-hydrogenase. […] (ibid) who also detected no H2-production of the recombinant expressed Fe-hydrogenase from Desulfovibrio vulgaris in E. coli cells. […]

Setting [8] is: broken cells, inhibitor 10^−4 M.
[9] abbreviates: broken cells, inhibitor 10^−5 M.
The mark [10] stands for this setting: intact cells, inhibitor 10^−5 M, added 1 hour before measurement.
Where [11] appears, read: methyl viologen, read-out: KM value (MV).

On to `O=C1C(Cl)=CC(=Nc2ccc(O)cc2)C=C1Cl` [DCPIP, 2,6-dichlorophenolindophenol], for which, in data set [1] (setting [8]), the Hydrogenase activity is 0.003 Units/mg chlorophyll.

As to `[C-]#[O+]` [CO], the “Inhibition of the enzyme (in words)” value in data set [2] and in data set [3] was “strongly inhibited” in each case.

For the molecule `CC1=C(Br)C(=O)C(C(C)C)=C(Br)C1=O` [DBMIB, 2,5-dibromo-3-methyl-6 isopropyl-p-benzochinone], the “Effect on H2 photoproduction / hydrogenase activity (in words)” value in data set [1] was “inhibition of the H2-production”. For the same molecule, the results for the Hydrogenase activity in data set [1] (setting [9]) and in data set [1] (setting [10]) were 0.006 Units/mg chlorophyll and 0.005 Units/mg chlorophyll, respectively. Also, in data set [4], the “Effect on H2 photoproduction (in words)” value is on record as “no H2-evolution”.

Regarding `CN(C)C(=O)Nc1ccc(Cl)c(Cl)c1` [DCMU, 3-(3,4-dichlorophenyl)-1,1-dimethylurea], in data set [1], the “Effect on H2 photoproduction / hydrogenase activity (in words)” value is “still able to photoproduce hydrogen; also recorded: not influenced”. In addition, the Hydrogenase activity in data set [1] (setting [9]) is 0.11 Units/mg chlorophyll; in data set [1] (setting [10]), 0.10 Units/mg chlorophyll. Moreover, in data set [4], the “Effect on H2 photoproduction (in words)” value is “still able to photoproduce hydrogen”.

Regarding “sulfodisalicylidinepropanediamin [sulfo-DSPD]”, the “Effect on H2 photoproduction / hydrogenase activity (in words)” value in data set [1] is “specifically blocked”. For the same molecule, in data set [1] (S. obliquus, Table II), the “Reduction of hydrogenase activity” value is given as “up to 30 fold”. Moreover, the Hydrogenase activity in data set [1] (setting [8]) came out at 0.003 Units/mg chlorophyll.

As for “spinach ferredoxin: plant-type [2Fe-2S] ferredoxin of spinach”, in data set [5], the H2-evolving activities came out at 350 U/mg protein.

Regarding `NC(=O)C1=CN([C@@H]2O[C@H](COP(=O)(O)OP(=O)(O)OC[C@H]3O[C@@H](n4cnc5c(N)ncnc54)[C@H](OP(=O)(O)O)[C@@H]3O)[C@@H](O)[C@H]2O)C=CC1` [NADPH, reference compound], the “Hydrogen production with other possible electron donors (in words)” value in data set [5] (in vitro, purified S. obliquus hydrogenase) is “No hydrogen production”.

In the case of `O=O` [O2], the figures for the “Inhibition of the enzyme (in words)” value in data set [2], in data set [2] (listed as oxygen) and in data set [3] were “strongly inhibited”, “irreversibly inactivated” and “strongly inhibited”, respectively.

Consider “C. reinhardtii ferredoxin: plant-type [2Fe-2S] ferredoxin isolated from C. reinhardtii”, for which, in data set [5], the H2-evolving activities is listed as 390 U/mg protein.

B1: S. obliquus iron hydrogenase: monomeric iron hydrogenase (HydA) of 44.5 kDa from Scenedesmus obliquus, SEQ. ID. NO. 4; recombinant form expressed in E. coli (protein, listed as Scenedesmus obliquus)
chain: MPEWQPGGRYAVSVRPPVNRRAVVAAERRRLVVRAAGPTAECDCPPAPAPKAPHWQQTLDELAKPKEQRKVMIAQIAPAVRVAIAETMGLNPGDVTVGQMVTGLRMLGFDYVFDTLFGADLTIMEEGTELLHRLQDHLEQHPNKEEPLPMFTSCCPGWVAMVEKSNPELIPYLSSCKSPQMMLGAVIKNYFAAEAGAKPEDICNVSVMPCVRKQGEADREWFNTTGAGGANVDHVMTTAELGKIFVERGIKLNDLQETPFDNPVGEGSGGVLFGTTGGVMEAALRTVYEVVTQKPLDRIVFEDVRGLEGIKESTLHLTPGPTSPFKAFAGADGTGITLNIAVANGLGNAKKLIKQLAAGESKYDFIEVMACPGGCIGGGGQPRSADKQILQKRQAAMYDLDERAVIRRSHENPLIGALYEKFLGEPNGHKAHELLHTHYVAGGVPDEK
On to B1, for which the Michaelis constant (Km) in data set [2] (setting [11]) was 800 µM. In data set [2] (purified enzyme), this molecule returned a Specific activity of 700 U/mg protein and a pI value of 5.17. Besides, in data set [6], the “Hydrogenase activity of lysate (in words)” value is on record as “no hydrogenase activity”.

B2: C. reinhardtii iron hydrogenase: Fe-hydrogenase HydA from Chlamydomonas reinhardtii, mature polypeptide of 441 amino acids, SEQ. ID. NO. 5 precursor (protein)
chain: AAPAAEAPLSHVQQALAELAKPKDDPTRKHVCVQVAPAVRVAIAETLGLAPGATTPKQLAEGLRRLGFDEVFDTLFGADLTIMEEGSELLHRLTEHLEAHPHSDEPLPMFTSCCPGWIAMLEKSYPDLIPYVSSCKSPQMMLAAMVKSYLAEKKGIAPKDMVMVSIMPCTRKQSEADRDWFCVDADPTLRQLDHVITTVELGNIFKERGINLAELPEGEWDNPMGVGSGAGVLFGTTGGVMEAALRTAYELFTGTPLPRLSLSEVRGMDGIKETNITMVPAPGSKFEELLKHRAAARAEAAAHGTPGPLAWDGGAGFTSEDGRGGITLRVAVANGLGNAKKLITKMQAGEAKYDFVEIMACPAGCVGGGGQPRSTDKAITQKRQAALYNLDEKSTLRRSHENPSIRELYDTYLGEPLGHKAHELLHTHYVAGGVEEKDEKK
Consider B2, for which the Michaelis-Menten constant (Km) amounted to 35 µM in data set [3] (ferredoxin, read-out: KM value (ferredoxin)) and 830 µM in data set [3] (setting [11]). Besides, the Specific activity in data set [3] (purified enzyme) was determined as 935 U/mg protein. Moreover, in data set [3] (purified enzyme), the pI value was found to be 5.3. For the same molecule, the “Hydrogenase activity of lysate (in words)” value in data set [7] was “No hydrogenase activity”.

Broadly, the Km is the concentration of substrate that gives half-maximal velocity.
